Several values for one entry are separate records, joined by “and”; a condition that tells them apart may be missing. Equal values may be shown once.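 Cells were grown in 96-well plates and exposed to each compound for 48 hours at five concentrations; endpoints were interpolated linearly between bracketing concentrations, or set to the highest concentration if not reached. At the GI50, growth is halved.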 Activity calls are given as the source filed them. No stated cut-off is given here; in the data, active = GI50 up to about 1.1 µM and inactive = higher. Where a SMILES comes first, the peptide text is derived from it. [ ]: non-standard residue; d: D form. The star is where a group is joined. Iva = CC[C](C)(N)C(=O)O; Boc = CC(C)(C)OC(=O)*; X54 = C1CCC(=NO*)C1
Assays:
Test in all cases: DTP human tumour cell line panel, 48 h
A498 = test system: A498
U-251 = test system: U-251
RPMI-8226 = test system: RPMI-8226
A549 = test system: A549
LOX IMVI = test system: LOX IMVI
NCI-H226 = test system: NCI-H226
ACHN = test system: ACHN
COLO 205 = test system: COLO 205
IGROV-1 = test system: IGROV-1
SF-268 = test system: SF-268
SN12C = test system: SN12C
M14 = test system: M14
HOP-92 = test system: HOP-92
UACC-62 = test system: UACC-62
CAKI-1 = test system: CAKI-1
TK-10 = test system: TK-10
NCI-H23 = test system: NCI-H23
RXF 393 = test system: RXF 393
SK-MEL-2 = test system: SK-MEL-2
NCI-H460 = test system: NCI-H460

Measured: GI50

COc1ccc(CC[N+]2(C)COc3cc4oc(=O)cc(C)c4cc3C2)cc1OC (centres undefined)
inactive: A498 > 100 µM | U-251 > 100 µM | RPMI-8226 > 100 µM | A549 > 100 µM | LOX IMVI > 100 µM | NCI-H226 > 100 µM | ACHN > 100 µM | COLO 205 > 100 µM | IGROV-1 > 100 µM | SF-268 > 100 µM | SN12C > 100 µM | M14 > 100 µM | HOP-92 > 100 µM | UACC-62 > 100 µM | CAKI-1 > 100 µM | TK-10 > 100 µM | NCI-H23 > 100 µM | RXF 393 > 100 µM | SK-MEL-2 > 100 µM

OC(c1ccc(Br)cc1)(c1cccs1)C1CC1 (centres undefined)
inactive: A498 21.5 µM | U-251 17.8 µM | RPMI-8226 21.6 µM | A549 35.7 µM | LOX IMVI 21.1 µM | NCI-H460 22.4 µM | ACHN 27 µM | COLO 205 19.2 µM | IGROV-1 15.7 µM | SF-268 20.7 µM | M14 21.1 µM | HOP-92 19.7 µM | UACC-62 16.4 µM | CAKI-1 20.8 µM | TK-10 27.9 µM | NCI-H23 22.4 µM | RXF 393 18.6 µM | SK-MEL-2 20.4 µM

CCOC(=O)c1c(CN2CCNCC2)nc2ccccc2c1-c1ccccc1
inactive: A498 14.6 µM | U-251 14.3 µM | RPMI-8226 14.4 µM | A549 16.7 µM | LOX IMVI 15.8 µM | NCI-H460 14.3 µM | NCI-H226 18.6 µM | ACHN 16.8 µM | COLO 205 14.3 µM | IGROV-1 15.3 µM | SF-268 14 µM | SN12C 14.7 µM | M14 13.4 µM | HOP-92 4.69 µM | UACC-62 15 µM | CAKI-1 12.2 µM | TK-10 14.3 µM | NCI-H23 18.7 µM | RXF 393 2.92 µM | SK-MEL-2 15.6 µM

COc1ccccc1/C=C1\Sc2scc(-c3cccc([N+](=O)[O-])c3)[n+]2C1=O
inactive: A498 21.3 µM | U-251 14.9 µM | RPMI-8226 3.18 µM | A549 17.1 µM | LOX IMVI 1.71 µM | NCI-H460 13.2 µM | NCI-H226 12.4 µM | ACHN 3.06 µM | COLO 205 2.11 µM | IGROV-1 7.46 µM | SF-268 4.78 µM | SN12C 2.88 µM | M14 3.93 µM | HOP-92 4.98 µM | UACC-62 8.51 µM | CAKI-1 2.43 µM | TK-10 2.83 µM | NCI-H23 10.4 µM | RXF 393 4.58 µM | SK-MEL-2 12.8 µM

CC(Oc1ccc(Oc2cnc3ccc(Cl)cc3n2)cc1)C(=O)O (centres undefined)
inactive: A498 > 80.4 µM | U-251 > 94.6 µM | A549 68.5 µM | LOX IMVI 51.8 µM | NCI-H460 60.4 µM and 19.6 µM | ACHN 60.5 µM | COLO 205 > 70 µM | IGROV-1 37.4 µM and 47.4 µM | SF-268 89.7 µM | M14 > 100 µM | HOP-92 > 100 µM | UACC-62 > 100 µM and 81.1 µM | CAKI-1 > 100 µM | TK-10 > 100 µM | NCI-H23 > 100 µM | RXF 393 > 100 µM | SK-MEL-2 > 100 µM

Cc1cc2c(nn1)-c1ccccc1C2=O
inactive: A498 > 10 µM | U-251 > 10 µM | RPMI-8226 > 10 µM | A549 > 10 µM | LOX IMVI > 10 µM | NCI-H460 > 10 µM | NCI-H226 > 10 µM | ACHN > 10 µM | COLO 205 > 10 µM | IGROV-1 > 10 µM | SF-268 > 10 µM | SN12C > 10 µM | M14 > 10 µM | HOP-92 > 10 µM | UACC-62 > 10 µM | CAKI-1 > 10 µM | TK-10 > 10 µM | NCI-H23 > 10 µM | RXF 393 > 10 µM | SK-MEL-2 > 10 µM

CCC(C)(NC(=O)C(C)NC(=O)OC(C)(C)C)C(=O)NC(C)C(=O)NC(C)(CC)C(=O)ON=C1CCCC1 (centres undefined) (Boc-A[Iva]A[Iva]-X54; configuration not given here)
inactive: A498 > 100 µM | U-251 > 100 µM | RPMI-8226 > 100 µM | NCI-H460 > 100 µM | NCI-H226 > 100 µM | COLO 205 > 100 µM | IGROV-1 > 100 µM | SN12C > 100 µM | M14 > 100 µM | HOP-92 > 100 µM | UACC-62 > 100 µM | CAKI-1 > 100 µM | NCI-H23 > 100 µM | RXF 393 16.7 µM | SK-MEL-2 > 100 µM

OCC(O)COc1ccc(Br)cc1 (centres undefined)
inactive: A498 > 100 µM | U-251 > 100 µM | RPMI-8226 > 100 µM | A549 50.7 µM | LOX IMVI > 100 µM | NCI-H460 > 10 µM | NCI-H226 > 100 µM | ACHN > 100 µM | COLO 205 > 100 µM | IGROV-1 > 100 µM | SF-268 > 100 µM | SN12C 60.3 µM | M14 > 100 µM | HOP-92 > 100 µM | UACC-62 > 100 µM | CAKI-1 > 100 µM | TK-10 > 100 µM | NCI-H23 > 100 µM | RXF 393 > 100 µM | SK-MEL-2 > 100 µM

C/C(=N/NC(=O)c1ccncc1)C(F)(F)F
inactive: A498 > 100 µM | U-251 > 100 µM | RPMI-8226 > 100 µM | NCI-H460 > 10 µM | NCI-H226 > 100 µM | COLO 205 > 100 µM | IGROV-1 > 100 µM | SN12C > 100 µM | M14 > 100 µM | HOP-92 > 100 µM | UACC-62 > 100 µM | CAKI-1 > 100 µM | TK-10 > 100 µM | NCI-H23 > 100 µM | RXF 393 > 100 µM | SK-MEL-2 > 100 µM

CCCCCCCCCCCCCCCc1ccc(OCC(O)CO)cc1 (centres undefined)
inactive: A498 89.5 µM | U-251 23.7 µM | RPMI-8226 18.9 µM | A549 22.6 µM | LOX IMVI 18.2 µM | NCI-H460 24.3 µM | NCI-H226 25.7 µM | ACHN 65 µM | COLO 205 23.6 µM | IGROV-1 31.3 µM | SF-268 27.9 µM | SN12C 18 µM | M14 17.9 µM | HOP-92 20.7 µM | UACC-62 23.9 µM | CAKI-1 31.6 µM | TK-10 > 100 µM | NCI-H23 17.8 µM | RXF 393 18.7 µM | SK-MEL-2 18.9 µM

COc1cc2cc[n+]3c(C)c4cc(OC)c(OC)cc4c([O-])c3c2cc1OC
inactive: A498 > 100 µM | U-251 47.1 µM | RPMI-8226 > 100 µM | A549 > 100 µM | NCI-H460 > 100 µM | NCI-H226 33.1 µM | ACHN > 100 µM | COLO 205 12.4 µM | IGROV-1 25.7 µM | SF-268 36.3 µM | SN12C 32.7 µM | M14 > 100 µM | HOP-92 > 100 µM | UACC-62 > 100 µM | CAKI-1 > 100 µM | TK-10 > 100 µM | NCI-H23 87.7 µM | RXF 393 35.6 µM | SK-MEL-2 56.9 µM

COc1ncnc2c(Cl)c(C(O)c3ccccc3)c(Cl)cc12 (centres undefined)
inactive: A498 19.7 µM | U-251 27.3 µM | RPMI-8226 18.7 µM | A549 34.8 µM | LOX IMVI 53.3 µM | NCI-H460 30.8 µM | ACHN 26.4 µM | COLO 205 29.4 µM | IGROV-1 29.3 µM | SF-268 21 µM | SN12C 28.1 µM | M14 23.9 µM | HOP-92 15.7 µM | UACC-62 16.1 µM | CAKI-1 34.7 µM | TK-10 23 µM | NCI-H23 41.6 µM | RXF 393 15.5 µM | SK-MEL-2 33.6 µM

CC(C(=O)O)c1cnn(-c2ccccc2)c1-n1cccc1 (centres undefined)
inactive: A498 > 100 µM | U-251 > 100 µM | RPMI-8226 > 100 µM | A549 > 100 µM | LOX IMVI > 100 µM | NCI-H460 > 100 µM | NCI-H226 > 100 µM | COLO 205 > 100 µM | IGROV-1 > 100 µM | SF-268 > 100 µM | SN12C > 100 µM | HOP-92 > 100 µM | UACC-62 > 100 µM | CAKI-1 > 100 µM | NCI-H23 > 100 µM | RXF 393 > 100 µM | SK-MEL-2 > 100 µM

C/C=C1\CCC2c3[nH]c4ccccc4c3CCN2C1 (centres undefined)
inactive: A498 > 100 µM | U-251 > 100 µM | A549 > 100 µM | NCI-H460 > 100 µM | NCI-H226 31 µM | ACHN > 100 µM | IGROV-1 > 100 µM | SF-268 > 100 µM | SN12C > 100 µM | M14 21.5 µM | HOP-92 26.3 µM | UACC-62 > 100 µM | CAKI-1 > 100 µM | TK-10 > 100 µM | NCI-H23 77.4 µM | RXF 393 66.4 µM | SK-MEL-2 > 100 µM

O=C1C(CO)=C[C@H](O)[C@H]2O[C@@H]12
inactive: A498 234 µM | U-251 171 µM | RPMI-8226 > 96.8 µM | A549 318 µM | LOX IMVI 136 µM | NCI-H460 199 µM | NCI-H226 194 µM | COLO 205 111 µM | IGROV-1 182 µM | SF-268 125 µM | SN12C 128 µM | HOP-92 283 µM | UACC-62 113 µM | CAKI-1 253 µM | NCI-H23 238 µM | RXF 393 153 µM | SK-MEL-2 130 µM

Reference: ChEMBL document CHEMBL1201862, “PubChem BioAssay data set” (2004)
